Laboratory results reported in patent US20240287080A1 (IDEAYA Biosciences Inc., priority 2021, published 2024).

Biological target: T1, Pol theta (1-899) (Homo sapiens, UniProt O75417)
T1 construct: Pol theta (1-899) (5 nM) in assay buffer
Test: Pol theta ATPase activity, NADH oxidation-coupled enzymatic assay (ATPase NADH coupling: Standard Screening: hPolQ)
Assay type: biochemical
Conditions: Pol theta (1-899) 5 nM
In short: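 NADH-coupled ATPase readout: 5 nM Pol theta (1-899) preincubated 15 min with 10-point compound series in Tris pH 7.80, KCl, MgCl2, DTT, BSA, Tween, glycerol, then 100 μM ATP, 300 nM 50-mer poly-dT ssDNA, NADH, PEP, LDH and PK added (stock levels). A340 followed 60 min; slopes fit four-parameter for IC50.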

[1] = NADH oxidation-coupled ATPase assay, compounds of Table 3

T1 sequence (O75417 1-899): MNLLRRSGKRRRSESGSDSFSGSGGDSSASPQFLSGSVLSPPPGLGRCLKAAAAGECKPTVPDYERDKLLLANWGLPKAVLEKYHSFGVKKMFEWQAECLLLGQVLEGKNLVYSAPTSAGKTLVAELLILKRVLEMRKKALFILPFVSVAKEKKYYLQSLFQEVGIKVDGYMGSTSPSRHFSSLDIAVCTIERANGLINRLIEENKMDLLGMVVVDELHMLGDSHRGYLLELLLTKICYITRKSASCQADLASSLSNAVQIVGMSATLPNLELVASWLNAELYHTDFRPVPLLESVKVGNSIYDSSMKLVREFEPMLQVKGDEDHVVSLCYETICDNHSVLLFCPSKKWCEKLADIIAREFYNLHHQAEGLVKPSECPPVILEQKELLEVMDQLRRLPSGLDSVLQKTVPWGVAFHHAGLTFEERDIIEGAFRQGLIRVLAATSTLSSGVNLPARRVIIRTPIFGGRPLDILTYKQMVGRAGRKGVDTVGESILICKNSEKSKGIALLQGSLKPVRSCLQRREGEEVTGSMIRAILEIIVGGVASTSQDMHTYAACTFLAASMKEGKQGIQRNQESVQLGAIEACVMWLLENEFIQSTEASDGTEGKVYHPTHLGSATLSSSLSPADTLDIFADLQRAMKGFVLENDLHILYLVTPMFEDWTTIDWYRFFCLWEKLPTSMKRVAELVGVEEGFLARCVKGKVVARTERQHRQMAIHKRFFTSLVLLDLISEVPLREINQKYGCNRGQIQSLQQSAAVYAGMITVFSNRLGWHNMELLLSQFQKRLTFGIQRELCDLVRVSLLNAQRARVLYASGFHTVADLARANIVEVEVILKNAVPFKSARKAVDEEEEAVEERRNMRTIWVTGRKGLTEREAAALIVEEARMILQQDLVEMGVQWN

IC50 [1]	Compound	further results
1000 to 10000 nM	COc1nnc(NC(=O)c2cnc(C)cc2-c2ccc3c(c2)CCO3)s1 [Example 380, 4-(2,3-dihydro-1-benzofuran-5-yl)-N-(5-methoxy-1,3,4-thiadiazol-2-yl)-6-methylpyridine-3-carboxamide]	
1000 to 10000 nM	COc1nnc(NC(=O)c2cnc(C)cc2-c2cccc(N3CCOCC3)c2)s1 [Example 415, N-(5-methoxy-1,3,4-thiadiazol-2-yl)-6-methyl-4-[3-(morpholin-4-yl)phenyl]pyridine-3-carboxamide]	
1000 to 10000 nM	CCc1ccc(-c2cc(C)ncc2C(=O)Nc2nnc(OC)s2)cc1 [Example 459, 4-(4-ethylphenyl)-N-(5-methoxy-1,3,4-thiadiazol-2-yl)-6-methylpyridine-3-carboxamide]	
200 to 500 nM	COc1ccc(-c2cc(C)ncc2C(=O)Nc2nnc(OC)s2)c(OC)n1 [Example 435, 2,6-dimethoxy-N-(5-methoxy-1,3,4-thiadiazol-2-yl)-6′-methyl-[3,4′-bipyridine]-3′-carboxamide]	
200 to 500 nM	COc1nnc(NC(=O)c2cnc(C)cc2-c2cc(C)cc(F)c2)s1 [Example 405, 4-(3-fluoro-5-methylphenyl)-N-(5-methoxy-1,3,4-thiadiazol-2-yl)-6-methylpyridine-3-carboxamide]	
500 to 1000 nM	COc1nnc(NC(=O)c2cnc(C)cc2-c2ccc(F)c(F)c2C)s1 [Example 475, 4-(3,4-difluoro-2-methylphenyl)-N-(5-methoxy-1,3,4-thiadiazol-2-yl)-6-methylpyridine-3-carboxamide]	
1000 to 10000 nM	COc1nnc(NC(=O)c2cnc(C)cc2-c2cnn(-c3ccccc3)c2)s1 [Example 460, N-(5-methoxy-1,3,4-thiadiazol-2-yl)-6-methyl-4-(1-phenyl-1H-pyrazol-4-yl)nicotinamide]	
1000 to 10000 nM	COc1nnc(NC(=O)c2cnc(C)cc2-c2cncc(C(=O)NC3CC3)c2)s1 [Example 403, N5-cyclopropyl-N3′-(5-methoxy-1,3,4-thiadiazol-2-yl)-6′-methyl-[3,4′-bipyridine]-3′,5-dicarboxamide]	
1000 to 10000 nM	COc1nnc(NC(=O)c2cnc(C)cc2-c2ccc(CN(C)C)nc2)s1 [Example 474, 6-((dimethylamino)methyl)-N-(5-methoxy-1,3,4-thiadiazol-2-yl)-6′-methyl-[3,4′-bipyridine]-3′-carboxamide]	
1000 to 10000 nM	COc1nnc(NC(=O)c2cnc(C)cc2-c2ccc(N3CCCCC3)cc2)s1 [Example 476, N-(5-methoxy-1,3,4-thiadiazol-2-yl)-6-methyl-4-[4-(piperidin-1-yl)phenyl]pyridine-3-carboxamide]	
200 to 500 nM	COc1nnc(NC(=O)c2cnc(C)cc2-c2cccc3sccc23)s1 [Example 423, 4-(1-benzothiophen-4-yl)-N-(5-methoxy-1,3,4-thiadiazol-2-yl)-6-methylpyridine-3-carboxamide]	
500 to 1000 nM	COc1nnc(NC(=O)c2cnc(C)cc2-c2ccccc2C)s1 [Example 389, N-(5-methoxy-1,3,4-thiadiazol-2-yl)-6-methyl-4-(2-methylphenyl)pyridine-3-carboxamide]	
1000 to 10000 nM	COc1nnc(NC(=O)c2cnc(C)cc2-c2cccc(NS(C)(=O)=O)c2)s1 [Example 400, 4-(3-methanesulfonamidophenyl)-N-(5-methoxy-1,3,4-thiadiazol-2-yl)-6-methylpyridine-3-carboxamide]	

Further lines, the molecule ahead of its results:

Compound	IC50 [1]	further results
COc1cnc(Cl)cc1-c1cc(C)ncc1C(=O)Nc1nnc(OC2CCCCC2)s1 [Example 12, 2′-chloro-N-(5-(cyclohexyloxy)-1,3,4-thiadiazol-2-yl)-5′-methoxy-6-methyl-(4,4′-bipyridine)-3-carboxamide]		IC50 (Table 4, ATP, dT50 ssDNA): ≤ 200 nM
COc1cnc(Cl)cc1-c1cc(C)ncc1C(=O)Nc1nnc(OC2CCN(CC(F)(F)F)CC2)s1 [Example 278, 2′-chloro-5′-methoxy-6-methyl-N-(5-((1-(2,2,2-trifluoroethyl)piperidin-4-yl)oxy)-1,3,4-thiadiazol-2-yl)-[4,4′-bipyridine]-3-carboxamide]	200 to 500 nM	
COc1cnc(Cl)cc1-c1cc(C)ncc1C(=O)Nc1nnc(O[C@H]2COC3(CCCC3)C2)s1 (single isomer, unassigned) [Example 230]		IC50 (Table 5, ATP, dT50 ssDNA): ≤ 200 nM
COc1cnc(Cl)cc1-c1cc(C)ncc1C(=O)Nc1nnc(O[C@H]2C[C@H](OC)C2)s1 (single isomer, unassigned) [Example 133, 2′-chloro-5′-methoxy-N-(5-((1r,3r)-3-methoxycyclobutoxy)-1,3,4-thiadiazol-2-yl)-6-methyl-(4,4′-bipyridine)-3-carboxamide]		IC50 (Table 5, ATP, dT50 ssDNA): ≤ 200 nM
COc1cnc(Cl)cc1-c1cc(C)ncc1C(=O)Nc1nnc(OC2CC(C)(O)C2)s1 (mixture of isomers) [Example 176, 2′-chloro-N-(5-(3-hydroxy-3-methylcyclobutoxy)-1,3,4-thiadiazol-2-yl)-5′-methoxy-6-methyl-(4,4′-bipyridine)-3-carboxamide]		IC50 (Table 5, ATP, dT50 ssDNA): ≤ 200 nM
CCc1cnc(Cl)cc1-c1cc(C)ncc1C(=O)Nc1nnc(OC)s1 [Example 49, 2′-chloro-5′-ethyl-N-(5-methoxy-1,3,4-thiadiazol-2-yl)-6-methyl-(4,4′-bipyridine)-3-carboxamide]		IC50 (Table 4, ATP, dT50 ssDNA): ≤ 200 nM
COc1nnc(NC(=O)c2cnc(C)cc2-c2c(Cl)cccc2Cl)s1 [Example 34, 4-(2,6-dichlorophenyl)-N-(5-methoxy-1,3,4-thiadiazol-2-yl)-6-methylnicotinamide]		IC50 (Table 4, ATP, dT50 ssDNA): 500 to 1000 nM
COc1cnc(Cl)cc1-c1cc(C)ncc1C(=O)Nc1nnc(O[C@H]2CC[C@H](CO)CC2)s1 [Example 168, 2′-chloro-N-(5-(((1r,4r)-4-(hydroxymethyl)cyclohexyl)oxy)-1,3,4-thiadiazol-2-yl)-5′-methoxy-6-methyl-(4,4′-bipyridine)-3-carboxamide]		IC50 (Table 5, ATP, dT50 ssDNA): ≤ 200 nM
COCc1cc(-c2cc(Cl)ncc2OC)c(C(=O)Nc2nnc(O[C@@H]3CCOC3)s2)cn1 [Example 142, (R)-2′-chloro-5′-methoxy-6-(methoxymethyl)-N-(5-((tetrahydrofuran-3-yl)oxy)-1,3,4-thiadiazol-2-yl)-(4,4′-bipyridine)-3-carboxamide]		IC50 (Table 5, ATP, dT50 ssDNA): ≤ 200 nM
COc1cnc(Cl)cc1-c1cc(C)ncc1C(=O)Nc1nnc(O[C@H]2CO[C@H]3OCC[C@H]32)s1 [Example 262, 2′-chloro-N-(5-(((3R,3aS,6aR)-hexahydrofuro[2,3-b]furan-3-yl)oxy)-1,3,4-thiadiazol-2-yl)-5′-methoxy-6-methyl-[4,4′-bipyridine]-3-carboxamide]	≤ 200 nM	
COc1nnc(NC(=O)c2cnc(C)cc2-c2ccc(C#N)cc2)s1 [Example 365, 4-(4-cyanophenyl)-N-(5-methoxy-1,3,4-thiadiazol-2-yl)-6-methylpyridine-3-carboxamide]	1000 to 10000 nM	
COc1nnc(NC(=O)c2cnc(C)cc2-c2cccc3cnccc23)s1 [Example 372, 4-(isoquinolin-5-yl)-N-(5-methoxy-1,3,4-thiadiazol-2-yl)-6-methylpyridine-3-carboxamide]	200 to 500 nM	
COc1nnc(NC(=O)c2cnc(C)cc2-c2cc(Cl)c([S@@+]([O-])C3CC3)cc2OC)s1 (single isomer, unassigned) [Example 318]	≤ 200 nM	
COc1nnc(NC(=O)c2cnc(C)cc2-c2cccc3[nH]ncc23)s1 [Example 335, 4-(1H-indazol-4-yl)-N-(5-methoxy-1,3,4-thiadiazol-2-yl)-6-methylnicotinamide]	500 to 1000 nM	
COc1nnc(NC(=O)c2ccncc2-c2cc(Cl)ncc2OC)s1 [Example 259, 2′-chloro-5′-methoxy-N-(5-methoxy-1,3,4-thiadiazol-2-yl)-[3,4′-bipyridine]-4-carboxamide]	≤ 200 nM	
COc1nnc(NC(=O)c2cnc(C)cc2-c2cc(F)cc(F)c2)s1 [Example 337, 4-(3,5-difluorophenyl)-N-(5-methoxy-1,3,4-thiadiazol-2-yl)-6-methylpyridine-3-carboxamide]	500 to 1000 nM	
COc1nnc(NC(=O)c2cc(N(C)C)ncc2-c2cc(Cl)ncc2OC)s1 [Example 311, 2′-chloro-6-(dimethylamino)-5′-methoxy-N-(5-methoxy-1,3,4-thiadiazol-2-yl)-[3,4′-bipyridine]-4-carboxamide]	200 to 500 nM	
COc1cnc(Cl)cc1-c1cc(C)ncc1C(=O)Nc1nnc(OC2(C)COC2)s1 [Example 24, 2′-chloro-5′-methoxy-6-methyl-N-(5-((3-methyloxetan-3-yl)oxy)-1,3,4-thiadiazol-2-yl)-(4,4′-bipyridine)-3-carboxamide]		IC50 (Table 4, ATP, dT50 ssDNA): ≤ 200 nM
COc1nnc(NC(=O)c2cnc(C)cc2-c2ccc(C(F)(F)F)cc2)s1 [Example 355, N-(5-methoxy-1,3,4-thiadiazol-2-yl)-methyl4-(4-(trifluoromethyl)phenyl) nicotinamide]	1000 to 10000 nM	
COc1nnc(NC(=O)c2cnc(C)cc2-c2ccc3c(c2)NC(=O)CO3)s1 [Example 346, N-(5-methoxy-1,3,4-thiadiazol-2-yl)-6-methyl-4-(3-oxo-3,4-dihydro-2H-1,4-benzoxazin-6-yl)pyridine-3-carboxamide]	1000 to 10000 nM	
COc1cnc(C)c(F)c1-c1cc(C)ncc1C(=O)Nc1nnc(O[C@H]2C[C@@H]3CC[C@H]2O3)s1 (single isomer, unassigned) [Example 219]		IC50 (Table 5, ATP, dT50 ssDNA): ≤ 200 nM
COc1cnc(Cl)cc1-c1cc(C)ncc1C(=O)Nc1nnc(O[C@@H]2CCC[C@@H](O)C2)s1 (single isomer, unassigned) [Example 162]		IC50 (Table 5, ATP, dT50 ssDNA): ≤ 200 nM
COc1nnc(NC(=O)c2cnc(C)cc2-c2cc(C)ncc2OC)s1 [Example 8]		IC50 (Table 4, ATP, dT50 ssDNA): ≤ 200 nM
COc1cnc(Cl)cc1-c1cc(C)ncc1C(=O)Nc1nnc(O[C@H]2CO[C@H]3[C@@H]2OC[C@H]3O)s1 [Example 237, 2′-chloro-N-(5-(((3S,3aR,6R,6aR)-6-hydroxyhexahydrofuro[3,2-b]furan-3-yl)oxy)-1,3,4-thiadiazol-2-yl)-5′-methoxy-6-methyl-[4,4′-bipyridine]-3-carboxamide]	≤ 200 nM	
